Our source for the activation, EC50 and Emax values is patent publication US20240150377A1, “MODULATORS OF CYSTIC FIBROSIS TRANSMEMBRANE CONDUCTANCE REGULATOR” (VERTEX PHARMACEUTICALS INCORPORATED, priority 2020, published 2024).

Read-outs that look alike come from different tables or passages of the source. Bounds are passed on as bounds.

The target of the assay is T1, CFTR (Homo sapiens, UniProt P13569, DEL508-508).
T1 construct: endogenous in cells; host or cells: primary human bronchial epithelial cells from CF subjects (F508del/MF-HBE), differentiated at air-liquid interface
T1 sequence (P13569 with tags, fused parts or gaps DEL508-508): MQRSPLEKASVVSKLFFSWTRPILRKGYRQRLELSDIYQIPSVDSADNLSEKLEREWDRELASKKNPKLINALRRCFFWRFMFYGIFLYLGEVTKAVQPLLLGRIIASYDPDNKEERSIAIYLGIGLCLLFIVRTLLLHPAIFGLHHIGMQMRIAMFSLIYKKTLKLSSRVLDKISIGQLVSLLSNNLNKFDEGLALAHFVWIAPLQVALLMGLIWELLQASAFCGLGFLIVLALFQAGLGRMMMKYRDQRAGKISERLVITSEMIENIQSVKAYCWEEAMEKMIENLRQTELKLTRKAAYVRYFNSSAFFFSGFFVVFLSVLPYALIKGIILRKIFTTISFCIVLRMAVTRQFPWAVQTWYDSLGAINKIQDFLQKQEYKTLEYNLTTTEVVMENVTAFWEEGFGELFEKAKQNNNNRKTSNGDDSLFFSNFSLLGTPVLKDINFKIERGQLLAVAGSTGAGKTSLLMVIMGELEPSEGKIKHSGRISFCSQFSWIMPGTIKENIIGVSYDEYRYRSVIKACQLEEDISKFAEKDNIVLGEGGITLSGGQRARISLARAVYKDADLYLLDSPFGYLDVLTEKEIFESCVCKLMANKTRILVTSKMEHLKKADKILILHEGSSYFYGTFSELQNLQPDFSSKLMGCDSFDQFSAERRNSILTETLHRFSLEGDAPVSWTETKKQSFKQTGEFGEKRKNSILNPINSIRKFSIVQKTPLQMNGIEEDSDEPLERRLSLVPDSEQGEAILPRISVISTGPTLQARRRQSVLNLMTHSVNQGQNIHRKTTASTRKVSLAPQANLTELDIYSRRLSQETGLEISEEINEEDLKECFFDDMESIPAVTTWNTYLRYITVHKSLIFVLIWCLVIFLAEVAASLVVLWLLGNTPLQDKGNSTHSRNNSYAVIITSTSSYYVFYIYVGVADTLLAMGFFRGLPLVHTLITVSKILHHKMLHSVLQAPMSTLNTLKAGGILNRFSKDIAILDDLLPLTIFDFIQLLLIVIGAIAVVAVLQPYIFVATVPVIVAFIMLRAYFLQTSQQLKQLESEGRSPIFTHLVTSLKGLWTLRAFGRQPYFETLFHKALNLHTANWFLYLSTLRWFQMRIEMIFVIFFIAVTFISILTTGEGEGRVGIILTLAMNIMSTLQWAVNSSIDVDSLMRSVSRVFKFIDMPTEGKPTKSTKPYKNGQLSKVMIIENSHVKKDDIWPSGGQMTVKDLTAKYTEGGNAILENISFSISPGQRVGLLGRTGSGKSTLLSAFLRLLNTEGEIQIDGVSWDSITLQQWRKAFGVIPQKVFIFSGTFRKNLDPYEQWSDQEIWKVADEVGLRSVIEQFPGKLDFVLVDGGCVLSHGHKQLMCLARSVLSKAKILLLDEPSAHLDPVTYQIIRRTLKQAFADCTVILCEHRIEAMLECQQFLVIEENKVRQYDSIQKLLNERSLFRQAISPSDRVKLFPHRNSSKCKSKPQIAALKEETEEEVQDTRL
Put plainly: HBE assay: Ussing chamber assay of CFTR-mediated short-circuit currents. Format: cell-based. The conditions noted are these: for EC50: read-out: HBE EC50. The method, boiled down: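 CFTR-mediated Isc (μA/cm²) equals the peak response to apical 20 μM forskolin minus the residual after a 20 μM each BPO/GlyH-101/CFTR inhibitor 172 cocktail, recorded in Ussing chambers at Vhold 0 mV, 37 °C, pH 7.4, with 30 μM apical amiloride. Cells were F508del/MF HBE cultures preincubated 18-24 h with corrector (concentration range or 10 μM) plus 1 μM ivacaftor in 20% human serum.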

Setting [1] is: Table 11, read-out: HBE Max Activity (%).
The mark [2] stands for this setting: Table 11, at 10 μM, read-out: HBE Activity at 10 μM (%).
Where [3] appears, read: Table 12, read-out: HBE Max Activity (%).
Where [4] appears, read: HBE assay, read-out: HBE Max activity (%).
The mark [5] stands for this setting: Table 10, read-out: HBE Max activity (%).
Setting [6] is: Table 13, at 10 μM, read-out: HBE Activity at 10 μM (%).
Where [7] appears, read: Table 12, at 10 μM, read-out: HBE Activity at 10 μM (%).
Setting [8] is: Table 13, read-out: HBE Max Activity (%).

`Cc1cccc(C)c1-c1cc2nc(n1)NS(=O)(=O)c1cccc(c1)C(=O)N(CC1CC(N3CC(C)OC(C)C3)C1)[C@H](CC(C)(C)C)CO2` (stereo partly drawn) [Compound 65, (11R)-12-[[3-(2,6-Dimethylmorpholin-4-yl)cyclobutyl]methyl]-6-(2,6-dimethylphenyl)-11-(2,2-dimethylpropyl)-2,2-dioxo-9-oxa-2λ^6-thia-3,5,12,19-tetrazatricyclo[12.3.1.14,8]nonadeca-1(18),4(19),5,7,14,16-hexaen-13-one]: the activation at 10 µM (read-out: HBE Activity at 10 μM (%)) was > 60%.
As to `COc1cnc(CN2C(=O)c3cccc(c3)S(=O)(=O)Nc3nc(cc(-c4c(C)cccc4C)n3)OC[C@H]2CC(C)(C)C)nc1C` [Compound 611], where the note is “Table 11”, the EC50 is < 1000 nM. Further, the Emax under setting [1] was > 60%.
On the same counts, the results for `Cc1cccc(C)c1-c1cc2nc(n1)NS(=O)(=O)c1cccc(c1)C(=O)N(Cc1ccc(OC(C)C)cn1)[C@H](CC(C)(C)C)CO2` [Compound 744] are < 1000 nM and > 60%.
Take `Cc1cccc(C)c1-c1cc2nc(n1)NS(=O)(=O)c1cccc(c1)C(=O)N(C[C@H]1CC(C)(C)CCO1)[C@H](CC(C)(C)C)CO2` (single isomer, unassigned) [Compound 24]: under setting [2], the activation at 10 µM is > 60%.
Consider `Cc1cccc(C)c1-c1cc2nc(n1)NS(=O)(=O)c1cccc(c1)C(=O)N(Cc1cccc(CC(C)C)n1)[C@H](CC(C)(C)C)CO2` [Compound 583], for which the EC50 (Table 12) is < 1000 nM. Moreover, the Emax under setting [3] was > 60%.
In the case of `Cc1cccc(C)c1-c1cc2nc(n1)NS(=O)(=O)c1cccc(c1)C(=O)N(Cc1cc(C(C)(C)O)ccn1)[C@H](CC(C)(C)C)CO2` [Compound 812], the EC50 (Table 11) is < 1000 nM. In addition, under setting [1], the Emax was > 60%.
Regarding `Cc1cccc(C)c1-c1cc2nc(n1)NS(=O)(=O)c1cccc(c1)C(=O)N(Cc1ncc(N3CC[C@](C)(F)C3)cn1)[C@H](CC(C)(C)C)CO2` [Compound 1440], the EC50 (HBE assay) was < 1000 nM. Besides, the Emax under setting [4] is > 60%.
`Cc1cccc(C)c1-c1cc2nc(n1)NS(=O)(=O)c1cccc(c1)C(=O)N([C@@H](C)c1ccc(-c3cn[nH]c3)cc1)[C@H](CC(C)(C)C)CO2` [Compound 287]: under setting [5], the Emax was > 60%.
With `Cc1cccc(C)c1-c1cc2nc(n1)NS(=O)(=O)c1cccc(c1)C(=O)N(Cc1ccc(N3CCC(C(C)(C)O)CC3)cn1)[C@H](CC(C)(C)C)CO2` [Compound 254], the activation at 10 µM under setting [6] is > 600%.
Regarding `Cc1cccc(C)c1-c1cc2nc(n1)NS(=O)(=O)c1cccc(c1)C(=O)N(Cc1ncc(OC3CC4(CC4)C3)cn1)[C@H](CC(C)(C)C)CO2` [Compound 560], the EC50 (Table 12) was < 1000 nM. Moreover, under setting [3], the Emax is > 60%.
The like results for `CC(C)=Cc1nccc(CN2C(=O)c3cccc(c3)S(=O)(=O)Nc3nc(cc(-c4c(C)cccc4C)n3)OC[C@H]2CC(C)(C)C)n1` [Compound 596] were, in that order, < 1000 nM and > 60%.
With `Cc1cccc(C)c1-c1cc2nc(n1)NS(=O)(=O)c1cccc(c1)C(=O)N(Cc1cncc(NC3CCOCC3)n1)[C@H](CC(C)(C)C)CO2` [Compound 1420], under “HBE assay”, the EC50 was < 1000 nM. Further, the Emax under setting [4] was > 60%.
The like results for `Cc1cccc(C)c1-c1cc2nc(n1)NS(=O)(=O)c1cccc(c1)C(=O)N(Cc1cncc(N3CCC[C@H]3COC(C)C)n1)[C@H](CC(C)(C)C)CO2` [Compound 1494] were, in that order, < 1000 nM and > 60%.
The like results for `CCO[C@H]1CCN(c2cnc(CN3C(=O)c4cccc(c4)S(=O)(=O)Nc4nc(cc(-c5c(C)cccc5C)n4)OC[C@H]3CC(C)(C)C)nc2)C1` [Compound 1438] were, in that order, < 1000 nM and > 60%.
Turning to `Cc1cccc(C)c1-c1cc2nc(n1)NS(=O)(=O)c1cccc(c1)C(=O)N(Cc1cc(C3CCOCC3)[nH]n1)[C@H](CC(C)(C)C)CO2` [Compound 449], the activation at 10 µM under setting [7] was > 600%.
For `Cc1cccc(C)c1-c1cc2nc(n1)NS(=O)(=O)c1cccc(c1)C(=O)N(Cc1ccc(C3CC(C)(C)CCO3)cn1)[C@H](CC(C)(C)C)CO2` (stereo partly shown) [Compound 706], the EC50 (Table 12) was < 1000 nM. The Emax under setting [3] was > 60%.
Consider `Cc1cccc(C)c1-c1cc2nc(n1)NS(=O)(=O)c1cccc(c1)C(=O)N(Cc1cccc(OC(C)C)n1)[C@H](CC(C)(C)C)CO2` [Compound 370], for which the EC50 (Table 13) is < 1000 nM. In addition, the Emax under setting [8] is > 60%.
With `Cc1cccc(C)c1-c1cc2nc(n1)NS(=O)(=O)c1cccc(c1)C(=O)N(Cc1ccnc(N(C)C(C)C)n1)[C@H](CC(C)(C)C)CO2` [Compound 628], the EC50 (Table 11) was < 1000 nM. Under setting [1], the Emax was > 60%.
For `Cc1cccc(C)c1-c1cc2nc(n1)NS(=O)(=O)c1cccc(c1)C(=O)N(CC(=O)N1CCCCC1c1ccccc1)[C@H](CC(C)(C)C)CO2` (stereo partly shown) [Compound 196], under setting [6], the activation at 10 µM was > 600%.
With `CCc1cccc(CN2C(=O)c3cccc(c3)S(=O)(=O)Nc3nc(cc(-c4c(C)cccc4C)n3)OC[C@H]2CC(C)(C)C)n1` [Compound 730], for the setting “Table 11”, the EC50 is < 1000 nM. The Emax under setting [1] was > 60%.
For `Cc1cccc(C)c1-c1cc2nc(n1)NS(=O)(=O)c1cccc(c1)C(=O)N(Cc1cnc(C3CCCCC3)cn1)[C@H](CC(C)(C)C)CO2` [Compound 891], the EC50 (Table 11) fell in the range of 1000 to 3000 nM. Moreover, the Emax under setting [1] is > 60%.
Take `Cc1cccc(C)c1-c1cc2nc(n1)NS(=O)(=O)c1cccc(c1)C(=O)N(Cc1cccc(Cc3nccs3)c1)[C@H](CC(C)(C)C)CO2` [Compound 295]: the EC50 (Table 10) was < 1000 nM. The Emax under setting [5] is > 60%.
In the case of `Cc1cccc(C)c1-c1cc2nc(n1)NS(=O)(=O)c1cccc(c1)C(=O)N(Cc1cccc(N3CCC[C@@]3(C)C(=O)O)n1)[C@H](CC(C)(C)C)CO2` [Compound 278], the activation at 10 µM under setting [7] is > 600%.
For the molecule `Cc1cccc(C)c1-c1cc2nc(n1)NS(=O)(=O)c1cccc(c1)C(=O)N(Cc1ccn(C)n1)[C@H](CC(C)(C)C)CO2` [Compound 825], the activation at 10 µM (Table 10, at 10 μM, read-out: HBE activity at 10 (μM) (%)) is > 60%.
Take `CO[C@@H]1CCN(c2cccc(CN3C(=O)c4cccc(c4)S(=O)(=O)Nc4nc(cc(-c5c(C)cccc5C)n4)OC[C@H]3CC(C)(C)C)n2)C1` [Compound 624]: the EC50 (Table 11) is < 1000 nM. For the same molecule, the Emax under setting [1] was > 60%.
Consider `Cc1cccc(C)c1-c1cc2cc(n1)NS(=O)(=O)c1cccc(c1)C(=O)N(Cc1ncc(N3CCC(C)(C)C3)cn1)[C@H](CC(C)(C)C)CO2` [Compound 524], for which the concentration for a half-maximal effect (EC50) (Table 12) is < 1000 nM. Besides, the Emax under setting [3] was > 60%.
As for `CCC1CCC(NC(=O)CN2C(=O)c3cccc(c3)S(=O)(=O)Nc3nc(cc(-c4c(C)cccc4C)n3)OC[C@H]2CC(C)(C)C)CC1` (stereo partly shown) [Compound 192], the activation at 10 µM under setting [6] is > 600%.
As to `Cc1cccc(C)c1-c1cc2nc(n1)NS(=O)(=O)c1cccc(c1)C(=O)N(Cc1ncc(N3CC4(COC4)C3)cn1)[C@H](CC(C)(C)C)CO2` [Compound 867], the EC50 (Table 13) is < 1000 nM. For the same molecule, the Emax under setting [8] is > 60%.
For `COC1(C)CCN(c2cnc(CN3C(=O)c4cccc(c4)S(=O)(=O)Nc4nc(cc(-c5c(C)cccc5C)n4)OC[C@H]3CC(C)(C)C)nc2)C1` (stereo partly shown) [Compound 543], the EC50 (Table 12) is < 1000 nM. Besides, under setting [3], the Emax was > 60%.
For `Cc1cccc(C)c1-c1cc2nc(n1)NS(=O)(=O)c1cccc(c1)C(=O)N(Cc1cccc(N3CCC[C@@H]3CC(C)C)n1)[C@H](CC(C)(C)C)CO2` [Compound 1428], where the note is “HBE assay”, the EC50 was < 1000 nM. Also, the Emax under setting [4] is > 60%.
Regarding `Cc1cccc(C)c1-c1cc2nc(n1)NS(=O)(=O)c1cccc(c1)C(=O)N(Cc1ccc(-c3cnc(O)nc3)cc1)[C@H](CC(C)(C)C)CO2` [Compound 145, (11R)-6-(2,6-dimethylphenyl)-11-(2,2-dimethylpropyl)-12-[[4-(2-hydroxypyrimidin-5-yl)phenyl]methyl]-2,2-dioxo-9-oxa-2λ^6-thia-3,5,12,19-tetrazatricyclo[12.3.1.14,8]nonadeca-1(18),4(19),5,7,14,16-hexaen-13-one], for the setting “Table 10”, the EC50 lay in the range of 1000 to 3000 nM. Also, the Emax under setting [5] was > 60%.
Take `Cc1cccc(C)c1-c1cc2nc(n1)NS(=O)(=O)c1cccc(c1)C(=O)N(Cc1cn(C(C)C)cn1)[C@H](CC(C)(C)C)CO2` [Compound 232]: the activation at 10 µM under setting [7] is > 600%.
Regarding `Cc1cccc(C)c1-c1cc2nc(n1)NS(=O)(=O)c1cccc(c1)C(=O)N(Cc1cnc(C3CCCC3)cn1)[C@H](CC(C)(C)C)CO2` [Compound 890], the EC50 (Table 11) fell in the range of 3000 to 30000 nM. In addition, the Emax under setting [1] is > 60%.
As to `Cc1cccc(C)c1-c1cc2nc(n1)NS(=O)(=O)c1cccc(c1)C(=O)N(Cc1ncc(N3CCSCC3)cn1)[C@H](CC(C)(C)C)CO2` [Compound 1147], the EC50 (Table 13) was < 1000 nM. The Emax under setting [8] was > 60%.
Regarding `Cc1cccc(C)c1-c1cc2nc(n1)NS(=O)(=O)c1cccc(c1)C(=O)N(CC1CC(C)(C)CCO1)[C@H](CC(C)(C)C)CO2` (single isomer, unassigned) [Compound 25], under setting [2], the activation at 10 µM was > 60%.
On to `Cc1cccc(C)c1-c1cc2nc(n1)NS(=O)(=O)c1cccc(c1)C(=O)N(Cc1cccc(C3=CCOCC3)n1)[C@H](CC(C)(C)C)CO2` [Compound 733], for which the activation at 10 µM under setting [2] is > 60%. Further, under “Table 11”, the EC50 was < 1000 nM. Also, the Emax under setting [1] was > 60%.
For `COCCN(c1cncc(CN2C(=O)c3cccc(c3)S(=O)(=O)Nc3nc(cc(-c4c(C)cccc4C)n3)OC[C@H]2CC(C)(C)C)n1)C(C)C` [Compound 1407], for the setting “HBE assay”, the EC50 is < 1000 nM. Moreover, the Emax under setting [4] was > 60%.

The EC50 is the midpoint of the concentration-response curve.
